Results reported in patent publication US20090264415A2 (priority 2004, published 2009).
Where two headings read alike, the source gives them in different places.

Assays:
[1] = test system: peripheral blood mononuclear cells (PBMC) stimulated with allogeneic PBMC or EBV-transformed human B cells (RPMI1788); assay: Mixed lymphocyte reaction (MLR) assay; type: cell-based
Procedure, shortened: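 Responder PBMC co-cultured in triplicate with 30 Gy-irradiated allogeneic PBMC or RPMI1788 B cells plus compound (DMSO stock 10 mM, diluted in medium). After 5 days at 37° C, 1 μCi [3H]-thymidine added for 16 h more; incorporated cpm counted and proliferation inhibition calculated.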

[2] = test system: production of human TNF-α by PBMC in response to LPS; assay: TNF-α assay (LPS-stimulated PBMC, sandwich ELISA); type: cell-based
Protocol: Peripheral blood mononuclear cells (herein referred as PBMC), in response to stimulation by lipopolysaccharide (hereinafter LPS), a gram-negative bacterial endotoxin, produce various […], in particular human TNF-α. Inhibition of the activation of PBMC can therefore be measured by the level of suppression of the production of TNF-α by PBMC in response to stimulation by LPS. Inhibition measurement was performed as follows: PBMC were isolated from heparinized peripheral blood by density gradient centrifugation over Lymphoprep (commercially available from Nycomed, Norway). LPS was then added to the PMBC suspension in complete medium (10^6 cells/ml) at a final concentration of 1 μg/ml. The pteridine derivative to be tested was added at different concentrations (0.1 μM, 1 μM and 10 μM) and the cells were incubated at 37° C. for 72 hours in 5% CO2. The supernatants were collected, then TNF-α concentrations were measured with respectively an anti-TNF-α antibody in a sandwich ELISA (Duo Set ELISA human TNFα, commercially available from R&D Systems, United Kingdom). The colorimetric reading of the ELISA was measured by a Multiskan RC plate reader (commercially available from ThermoLabsystems, Finland) at 450 nm (reference wavelength: 690 nm). Data analysis was performed with Ascent software 2.6. (also from ThermoLabsystems, Finland): a standard curve (recombinant human TNFα) was drawn and the amount (pg/ml) of each sample on the standard curve was determined. The % suppression of human TNFα production by the pyrido[3,2-d]pyrimidine derivatives of the invention was calculated using the formula: [formula]

[3] = 50% suppression of the MLR, [3H]-thymidine incorporation, read-out: MLR
[4] = LPS 1 μg/ml, 72 hours, read-out: TNF α
[5] = Homo sapiens, RPMI-1788, 50% suppression of the MLR, [3H]-thymidine incorporation, read-out: MLR
[6] = Homo sapiens, PBMC, LPS 1 μg/ml, 72 hours, read-out: TNF α

Row | SMILES | IC50 [1, 3] | IC50 [2, 4] | IC50 [1, 5] | IC50 [2, 6] | also measured
1 | COc1ccc(-c2ccc3nc(N)nc(NCCN4CCOCC4)c3n2)cc1OC [Example 33, 2-amino-4-[4-(2-aminoethyl)morpholino]-6-(3,4-dimethoxyphenyl)-pyrido[3,2-d]pyrimidine] | 1.9 µM | 0.7 µM | – | – | –
2 | COc1ccc(-c2ccc3nc(N)nc(NC4CCCN(C(=O)OC(C)(C)C)C4)c3n2)cc1OC (stereo not shown) [Example 257, 2-amino-4-[(1-Boc-piperidin-3-yl)amino]-6-(3,4-dimethoxyphenyl)-pyrido[3,2-d]pyrimidine] | – | – | 0.3 µM | 0.6 µM | –
3 | COc1ccc(-c2ccc3nc(N)nc(N4CCOCC4)c3n2)cc1C [Example 163, 2-amino-4-(morpholino)-6-(3-methyl-4-methoxyphenyl)pyrido[3,2-d]pyrimidine] | – | – | 3.6 µM | 6.5 µM | –
4 | COc1ccc(-c2ccc3nc(N)nc(NCC(OC)OC)c3n2)cc1OC [Example 34, 2-amino-4-(2,2-dimethoxyethylamino)-6-(3,4-dimethoxyphenyl)pyrido[3,2-d]pyrimidine] | – | – | – | – | IC50 ([1]; Homo sapiens, RPMI-1788, read-out: MLR (μM)): 0.8 µM; IC50 ([2]; Homo sapiens, PBMC, 72 h, read-out: TNF α (μM)): 0.6 µM
5 | COc1ccc(-c2ccc3nc(N)nc(NC4CCN(C(=O)Nc5cccc(C)c5)CC4)c3n2)cc1OC [Example 263] | – | – | 0.07 µM | 0.5 µM | –
6 | Nc1nc(N2CCN(CC(=O)Nc3nccs3)CC2)c2nc(-c3ccc4c(c3)OCO4)ccc2n1 [Example 191] | – | – | 0.4 µM | 3.5 µM | –
7 | Clc1ccc(-c2ccc3ncnc(N4CCOCC4)c3n2)cc1 [Example 124, 4-morpholino-6-(4-chlorophenyl)-pyrido[3,2-d]pyrimidine] | – | – | 7.2 µM | 10 µM | –
8 | CCOc1ccc(-c2ccc3nc(N)nc(N4CCOCC4)c3n2)cc1OC [Example 97, 2-amino-4-(N-morpholino)-6-(4-ethoxy-3-methoxyphenyl)-pyrido[3,2-d]pyrimidine] | 0.5 µM | 0.3 µM | – | – | –
9 | COc1cc(-c2ccc3nc(N)nc(N4CCN(C(=O)Nc5ccc(F)cc5)CC4)c3n2)ccc1O [Example 101, 2-amino-4-[(N-4-fluoro-phenyl-carbamoyl)-piperazin-1-yl]-6-(4-hydroxy-3-methoxy-phenyl)-pyrido[3,2-d]pyrimidine] | 0.5 µM | 0.6 µM | – | – | –
10 | COc1ccc(-c2ccc3nc(N)nc(Nc4ccc5c(c4)OCO5)c3n2)cc1OC [Example 28, 2-amino-4-[3,4-(methylenedioxy)aniline]-6-(3,4-dimethoxyphenyl)pyrido[3,2-d]pyrimidine] | 0.7 µM | 0.8 µM | – | – | –
11 | COc1ccc(-c2ccc3nc(N)nc(NCCCNC(=O)Nc4cccc(C)c4)c3n2)cc1OC [Example 262, 2-amino-4-[(3-methylphenylcarbamoyl)-3-aminopropane-amino-1-N-yl]-6-(3,4-dimethoxyphenyl)-pyrido[3,2-d]pyrimidine] | – | – | 0.5 µM | 6.9 µM | –
12 | COc1ccc(-c2ccc3nc(N)nc(N4CCCC(C(=O)NCC(C)C)C4)c3n2)cc1OC (stereo not shown) [Example 268, 2-amino-4-[(3-carboxylic acid isobutylamide)-piperidin-1-yl]-6-(3,4-dimethoxyphenyl)-pyrido[3,2-d]pyrimidine] | – | – | 0.5 µM | 0.7 µM | –
13 | COc1ccc(-c2ccc3nc(N)nc(N4CCN(Cc5ccc6c(c5)OCO6)CC4)c3n2)cc1OC [Example 50, 2-amino-4-(1-piperonyl-piperazin-1-yl)-6-(3,4-dimethoxyphenyl)-pyrido[3,2-d]pyrimidine] | 7.4 µM | 8.5 µM | – | – | –
14 | COc1ccc(-c2ccc3nc(N)nc(N4CCOCC4)c3n2)cc1Cl [Example 164, 2-amino-4-(morpholino)-6-(3-chloro-4-methoxyphenyl)pyrido[3,2-d]pyrimidine] | – | – | 0.6 µM | 1.5 µM | –
15 | COc1ccc(-c2ccc3ncnc(N4CCN(CCOc5ccccc5)CC4)c3n2)cc1OC [Example 5, 4-[(2-phenoxyethyl)-piperazin-1-yl]-6-(3,4-dimethoxyphenyl)-pyrido[3,2-d]pyrimidine] | 0.1 µM | 0.65 µM | – | – | –
16 | COc1cc(-c2ccc3nc(N)nc(N4CCOCC4)c3n2)ccc1OC(C)C [Example 99, 2-amino-4-(N-morpholino)-6-(4-isopropoxy-3-methoxy-phenyl)-pyrido[3,2-d]pyrimidine] | 0.7 µM | 1 µM | – | – | –

Row | SMILES | IC50 [1, 3] | IC50 [2, 4] | IC50 [1, 5] | IC50 [2, 6] | also measured
17 | COc1cc(-c2ccc3nc(N)nc(N4CCNCC4)c3n2)ccc1O [Example 100, 2-amino-4-(N-piperazin-1-yl)-6-(3-methoxy-4-hydroxyphenyl)-pyrido[3,2-d]pyrimidine] | 3.3 µM | 2.4 µM | – | – | –
18 | COc1ccc(-c2ccc3nc(N)nc(NCCCNC(=O)COc4ccc(Cl)cc4)c3n2)cc1OC [Example 266, 2-amino-4-[3-N-(4-chlorophenoxy-acetyl)-3-amino-propane-amine-1-N-yl]-6-(3,4-dimethoxyphenyl)-pyrido[3,2-d]pyrimidine] | – | – | 0.7 µM | 0.9 µM | –
19 | Cc1ccc(-c2ccc3nc(N)nc(N4CCOCC4)c3n2)s1 [Example 235, 2-amino-4-morpholino-6-(5-methyl-2-thienyl)-pyrido[3,2-d]pyrimidine] | – | – | 3.4 µM | 1.8 µM | –
20 | COc1ccc(-c2ccc3nc(N)nc(N4CCN(C(=O)Nc5cc(Cl)nc(Cl)c5)CC4)c3n2)cc1OC [Example 55, 2-amino-4(N-2,6-dichloro-pyridinyl-carbamoyl-piperazin-1-yl)-6-(3,4-dimethoxyphenyl)-pyrido[3,2-d]pyrimidine] | 0.3 µM | 0.4 µM | – | – | –
21 | CCOc1ccc(-c2ccc3nc(N)nc(N4CCN(C(=O)Nc5ccc(F)cc5)CC4)c3n2)cc1OC [Example 102] | 0.04 µM | 0.6 µM | – | – | –
22 | COc1ccc(-c2ccc3ncnc(N4CCN(C(=O)Nc5cccc(Cl)c5)CC4)c3n2)cc1OCC1CC1 [Example 215, 4-[N-(3-chloro-phenylcarbamoyl)-piperazin-1-yl]-6-(3-cyclopropylmethoxy-4-methoxy-phenyl)-pyrido[3,2-d]pyrimidine] | – | – | 0.2 µM | 0.8 µM | –
23 | COc1cc(-c2ccc3nc(N)nc(N4CCN(C(=O)Nc5ccc(F)cc5)CC4)c3n2)ccc1OC(C)C [Example 103, 2-amino-4-[(N-4-fluoro-phenyl-carbamoyl)-piperazin-1-yl]-6-(4-isopropoxy-3-methoxy-phenyl)-pyrido[3,2-d]pyrimidine] | 0.07 µM | 6.4 µM | – | – | –
24 | Nc1nc(N2CCOCC2)c2nc(-c3ccc4c(c3)OCCO4)ccc2n1 [Example 165, 2-amino-4-(morpholino)-6-(1,4-benzodioxane-phenyl)pyrido[3,2-d]pyrimidine] | 0.6 µM | 0.9 µM | – | – | –
25 | COc1ccc(-c2ccc3nc(N)nc(N4CCN(C)CC4)c3n2)cc1OC [Example 31, 2-amino-4-(N-methyl-piperazino)-6-(3,4-dimethoxyphenyl)-pyrido[3,2-d]pyrimidine] | – | – | 0.9 µM | 0.8 µM | –
26 | COc1ccc(-c2ccc3nc(N)nc(Nc4cccc(Br)c4)c3n2)cc1OC [Example 29, 2-amino-4-(3-bromo-anilino)-6-(3,4-dimethoxyphenyl)pyrido[3,2-d]-pyrimidine] | – | – | 0.7 µM | 0.8 µM | –
27 | Cc1noc(C)c1-c1ccc2nc(N)nc(N3CCOCC3)c2n1 [Example 246, 2-amino-4-morpholino-6-[4-(3,5-dimethylisoxazolyl)]-pyrido[3,2-d]pyrimidine] | 5.5 µM | 1.6 µM | – | – | –
28 | CC(=O)N1CCN(c2nc(N)nc3ccc(-c4ccc5c(c4)OCO5)nc23)CC1 [Example 190, 2-amino-4-[N-acetyl-piperazin-1-yl]-6-(3,4-methylenedioxyphenyl)-pyrido[3,2-d]pyrimidine] | – | – | 0.8 µM | 4.8 µM | –
29 | COc1ccc(-c2ccc3ncnc(N4CCN(c5ccc(C)cc5)CC4)c3n2)cc1OC [Example 105, 4-(4-methyl-phenyl-piperazin-1-yl)-6-(3,4-dimethoxy-phenyl)-pyrido[3,2-d]pyrimidine] | 0.8 µM | 0.09 µM | – | – | –
30 | Nc1nc(N2CCOCC2)c2nc(-c3ccccc3Br)ccc2n1 [Example 210, 2-amino-4-morpholino-6-(2-bromo-phenyl)-pyrido[3,2-d]pyrimidine] | – | – | 1.8 µM | 7.2 µM | –
31 | Nc1nc(N2CCOCC2)c2nc(-c3ccncc3)ccc2n1 [Example 234, 2-amino-4-morpholino-6-(4-pyridinyl)-pyrido[3,2-d]pyrimidine] | – | – | 0.7 µM | 0.5 µM | –
32 | COc1ccc(-c2ccc3nc(N)nc(NCC(=O)N4CCN(Cc5ccccc5)CC4)c3n2)cc1OC [Example 271, 2-amino-4-[2-(4-benzylpiperazin-1-yl)-2-oxo-ethane-amino]-6-(3,4-dimethoxyphenyl)-pyrido[3,2-d]pyrimidine] | – | – | 0.7 µM | 0.5 µM | –
